Legend:
[1] = In vivo pharmacokinetics in rats; conditions: Wistar, rat, plasma, po, male rats, 2 mg/kg p.o.; for bioavailability: AUCnorm intragastral / AUCnorm i.v. (0.5 mg/kg), read-out: F (oral bioavailability)
Description: 2.4 In Vivo Pharmacokinetics in Rats
For in vivo pharmacokinetic experiments test compounds were administered to male Wistar rats intravenously at a dose of 0.5 mg/kg and intragastral at a dose of 2 mg/kg formulated as solutions using solubilizers such as PEG400 or Solutol in well-tolerated amounts.
For pharmacokinetics after intravenous administration test compounds were given as i.v. bolus and blood samples were taken at 2 min, 8 min, 15 min, 30 min, 45 min, 1 h, 2 h, 4 h, 7 h and 24 h after dosing. […] For pharmacokinetics after intragastral administration test compounds were given intragastral to fasted rats and blood samples were taken at 8 min, 15 min, 30 min, 45 min, 1 h, 2 h, 4 h, 7 h and 24 h after dosing. […] Blood was collected into Lithium-Heparintubes (Monovetten®, Sarstedt) and centrifuged for 15 min at 3000 rpm. An aliquot of 100 μL from the supernatant (plasma) was taken and precipitated by addition of 400 μL cold acetonitril and frozen at −20° C. over night. Samples were subsequently thawed and centrifuged at 3000 rpm, 4° C. for 20 minutes. Aliquots of the supernatants were taken for analytical testing using an Agilent 1200 HPLC-system with LCMS/MS detection. PK parameters were calculated by non-compartmental analysis using a PK calculation software.
PK parameters derived from concentration-time profiles after i.v.: CLplasma: Total plasma clearance of test compound (in L/kg/h); CLblood: Total blood clearance of test compound: CLplasma*Cp/Cb (in L/kg/h) with Cp/Cb being the ratio of concentrations in plasma and blood. PK parameters calculated from concentration time profiles after i.g.: Cmax: Maximal plasma concentration (in mg/L); Cmaxnorm: Cmax divided by the administered dose (in kg/L); Tmax: Time point at which Cmax was observed (in h). Parameters calculated from both, i.v. and i.g. concentration-time profiles: AUCnorm: Area under the concentration-time curve from t=0 h to infinity (extrapolated) divided by the administered dose (in kg*h/L); AUC(0−tlast)norm: Area under the concentration-time curve from t=0 h to the last time point for which plasma concentrations could be measured divided by the administered dose (in kg*h/L); t½: terminal half-life (in h); F: oral bioavailability: AUCnorm after intragastral administration divided by AUCnorm after intravenous administration (in %).

[2] = system: LH level in ovariectomized rats; assay: LH suppression in the ovariectomized rat; format: in vivo; conditions: for LH suppression: 8 hours after administration
Source text: 2.5. LH Suppression in the Ovariectomized Rat
The in vivo potency of GnRH antagonists can be quantified by a LH suppression test in ovariectomized rats. GnRH triggers the LH release from the pituitary mediated by GnRH receptors. Ovarectomy of adult female rats results in elevated levels of circulating LH due to a lack of negative feedback by gonadal steroids. GnRH antagonists suppress the release of LH and accordingly suppression of LH levels can be used to quantify the in vivo potency of GnRH antagonists.
Female adult rats were ovariectomized surgically and they were allowed to recover for at least one week. The animals received 0.5 mg/kg, 3 mg/kg or 10 mg/kg of Example 3.1 by single per oral administration. For comparison reasons a vehicle control and a positive control, 0.1 mg/kg cetrorelix (i.p.), were given once. At 0 min, 15 min, 30 min, 1 hour, 2 hours, 4 hours, 8 hours and 24 hours after compound administration blood was taken from the retro orbital plexus (n=6 per blood withdrawal) for the measurement of serum LH and serum compound levels.
As nonbinding explanatory example of compounds according to the invention FIG. 1 represents the LH level following administration of the compound according to Example 3.1, to ovariectomized adult rats. [Filled circle: Vehicle; Circle, dotted black line: Cetrorelix (0.1 mg/kg); Triangle: Example 3.1 (0.5 mg/kg); Reverse triangle: Example 3.1 (3 mg/kg); Diamond: Example 3.1 (10 mg/kg)]. Values are given as mean+standard deviation (n=6).

O=C(NCc1ncc(C(F)(F)F)cc1Cl)c1ccc2c(c1)C1(CCS(=O)(=O)CC1)[C@H](C1CC1)N2S(=O)(=O)c1ccc(F)cc1 [Example 3.1, (2S)—N-{[3-chloro-5-(trifluoromethyl)pyridin-2-yl]methyl}-2-cyclopropyl-1-[(4-fluorophenyl)sulfonyl]-1,2,2′,3′,5′,6′-hexahydrospiro[indole-3,4′-thiopyran]-5-carboxamide 1′,1′-dioxide] showed a half-life [1] of 17 h, a bioavailability [1] of 87% and an LH suppression ([2]; 0.5 mg/kg single per oral administration) of 19%. The LH suppression ([2]; 3 mg/kg single per oral administration) was 48%, the LH suppression ([2]; 10 mg/kg single per oral administration) was 90% and the “in vivo GnRH antagonist activity (conclusion)” value ([2]; per oral administration) was “orally active GnRH antagonist in vivo”.

With O=C(NCc1ncc(C(F)(F)F)cc1F)c1ccc2c(c1)C1(CCS(=O)(=O)CC1)[C@H](C1CC1)N2S(=O)(=O)c1ccc(F)cc1 (single isomer, unassigned) [Example 1.1] the half-life [1] was 5.2 h and the bioavailability [1] was 32%.

With N#Cc1cccc(S(=O)(=O)N2c3ccc(C(=O)NCc4ncc(C(F)(F)F)cc4Cl)cc3C3(CCS(=O)(=O)CC3)[C@@H]2C2CC2)c1 (single isomer, unassigned) [Example 10.1] the half-life [1] was 3.3 h and the bioavailability [1] was 23%.

From patent publication US20160052936A1, “SPIROINDOLINE DERIVATIVES FOR USE AS GONADOTROPIN-RELEASING HORMONE RECEPTOR ANTAGONISTS” (BAYER PHARMA AKTIENGESELLSCHAFT, priority 2013, published 2016)
